Test results: publication PMC8192883, “Novel 1,2,4-oxadiazole derivatives as selective butyrylcholinesterase inhibitors: Design, synthesis and biological evaluation” (EXCLI Journal, 2021)
Where two headings read alike, the source gives them in different places.

Key:
[1] = target: T1, AChE (E.C. 3.1.1.7, type V-S) (Electrophorus electricus, UniProt O42275); assay: biochemical; conditions: Ellman's method, electric eel AChE, mean ± SD
T1 construct: purchased Sigma-Aldrich type V-S (catalogue number not given); host or cells: electric eel (natural source)
T1 sequence (O42275 24-633): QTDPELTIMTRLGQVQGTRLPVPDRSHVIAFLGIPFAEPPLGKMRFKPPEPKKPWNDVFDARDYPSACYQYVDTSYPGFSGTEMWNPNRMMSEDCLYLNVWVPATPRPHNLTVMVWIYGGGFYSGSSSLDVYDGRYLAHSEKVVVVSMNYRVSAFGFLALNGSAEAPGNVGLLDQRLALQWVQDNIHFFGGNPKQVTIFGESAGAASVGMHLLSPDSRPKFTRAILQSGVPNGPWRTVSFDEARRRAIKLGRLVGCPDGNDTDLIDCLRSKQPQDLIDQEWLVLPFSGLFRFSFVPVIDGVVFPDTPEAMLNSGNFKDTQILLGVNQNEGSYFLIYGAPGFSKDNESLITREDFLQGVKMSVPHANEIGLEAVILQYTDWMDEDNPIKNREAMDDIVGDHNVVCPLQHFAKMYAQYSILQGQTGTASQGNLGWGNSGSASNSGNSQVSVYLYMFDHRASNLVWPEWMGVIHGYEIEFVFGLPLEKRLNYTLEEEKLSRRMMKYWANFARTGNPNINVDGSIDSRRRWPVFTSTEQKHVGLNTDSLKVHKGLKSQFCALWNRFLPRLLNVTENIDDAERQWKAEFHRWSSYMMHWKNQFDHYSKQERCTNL
Experimental: (§1) The inhibitory activity of the designed compounds against BuChE and AChE was evaluated using Ellman's method. […] AChE (E.C. 3.1.1.7, type V-S, lyophilized powder, from the electric eel, 1000 units) and BuChE (E.C. 3.1.1.8, from equine serum), acetylthiocholine iodide (ATCI), butyrylthiocholine iodide (BTCI), and 5,5-dithiobis-(2-nitrobenzoic acid) (DTNB) were all acquired from Sigma-Aldrich. Potassium dihydrogen phosphate, dipotassium hydrogen phosphate, potassium hydroxide, and sodium hydrogen carbonate were obtained from Fluka. […] In this regard, each one of the wells included a 50 µL potassium phosphate buffer, 25 µL sample dissolved in 50 % methanol and 50 % DMSO, and 25 µL enzyme (the final concentration 0.22 U/mL in buffer). Thereafter, the wells were pre-incubated for 15 min at room temperature, and 125 µL DTNB (3 mM in buffer) was added to each plate. […] As well, the IC50 values were expressed as mean ± SD. The percentage of enzyme's inhibition was calculated by comparing with a blank sample (100 % activity). The described method was also used for the BuChE inhibition assay.

[2] = target: T2, BuChE (E.C. 3.1.1.8) (Equus caballus, UniProt P81908); assay: biochemical; conditions: for IC50: Ellman's method, equine serum BuChE, mean ± SD; for SI (selectivity towards BuChE): SI ratio, values match IC50 AChE / IC50 BuChE
T2 construct: purchased Sigma-Aldrich; host or cells: equine serum (natural source)
T2 sequence (P81908 whole entry): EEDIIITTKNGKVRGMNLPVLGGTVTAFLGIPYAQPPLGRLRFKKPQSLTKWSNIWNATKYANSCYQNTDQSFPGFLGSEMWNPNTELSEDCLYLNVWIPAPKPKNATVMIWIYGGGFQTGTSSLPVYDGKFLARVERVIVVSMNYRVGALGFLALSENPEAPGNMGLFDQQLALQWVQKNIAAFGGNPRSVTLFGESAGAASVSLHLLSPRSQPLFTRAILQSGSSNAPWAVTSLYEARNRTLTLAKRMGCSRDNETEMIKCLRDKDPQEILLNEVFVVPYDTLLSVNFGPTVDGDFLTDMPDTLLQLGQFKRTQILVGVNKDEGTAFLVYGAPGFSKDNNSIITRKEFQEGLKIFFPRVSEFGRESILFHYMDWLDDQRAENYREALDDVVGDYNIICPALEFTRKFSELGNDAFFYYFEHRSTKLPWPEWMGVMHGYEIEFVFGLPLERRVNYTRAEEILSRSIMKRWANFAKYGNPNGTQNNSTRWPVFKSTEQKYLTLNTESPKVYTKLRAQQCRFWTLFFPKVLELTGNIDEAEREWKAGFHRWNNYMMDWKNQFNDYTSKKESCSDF
Experimental: as §1

[3] = system: AChE; set-up: method as in earlier work; conditions: Figure 2, known inhibitors, ref Wajid et al., 2019, Wu et al., de Andrade et al., Joubert and Kapp, 2020; cited from earlier work
[4] = system: BuChE; conditions: ref Wajid et al., 2019, Wu et al., cited from earlier work
[5] = Figure 2, known inhibitors, de Andrade et al., Joubert and Kapp, 2020

| SMILES | IC50 [1] | IC50 [2] | SI (selectivity towards BuChE) [2] | further results |
| --- | --- | --- | --- | --- |
| c1ccc(CN2CCC(c3nc(-c4ccccc4)no3)CC2)cc1 [6a, 5-(1-benzylpiperidin-4-yl)-3-phenyl-1,2,4-oxadiazole] | 35.5 µM | 14.2 µM | 2.49 |  |
| Cc1ccc(-c2noc(C3CCN(Cc4ccccc4)CC3)n2)cc1 [6b, 5-(1-benzylpiperidin-4-yl)-3-(p-tolyl)-1,2,4-oxadiazole] | > 100 µM | 9.81 µM | > 10.19 |  |
| Clc1ccc(-c2noc(C3CCN(Cc4ccccc4)CC3)n2)cc1 [6c, 5-(1-benzylpiperidin-4-yl)-3-(4-chlorophenyl)-1,2,4-oxadiazole] | > 100 µM | > 100 µM |  |  |
| Fc1ccc(-c2noc(C3CCN(Cc4ccccc4)CC3)n2)cc1 [6d, 5-(1-benzylpiperidin-4-yl)-3-(4-fluorophenyl)-1,2,4-oxadiazole] | 21.16 ± 0.13 µM | 24.8 ± 0.97 µM | 0.85 |  |
| Fc1ccc(CN2CCC(c3nc(-c4ccccc4)no3)CC2)cc1 [6e, 5-(1-(4-fluorobenzyl)piperidin-4-yl)-3-phenyl-1,2,4-oxadiazole] | > 100 µM | > 100 µM |  |  |
| Cc1ccc(-c2noc(C3CCN(Cc4ccc(F)cc4)CC3)n2)cc1 [6f, 5-(1-(4-fluorobenzyl)piperidin-4-yl)-3-(p-tolyl)-1,2,4-oxadiazole] | > 100 µM | 50.7 ± 0.06 µM | > 1.97 |  |
| Fc1ccc(CN2CCC(c3nc(-c4ccc(Cl)cc4)no3)CC2)cc1 [6g, 3-(4-chlorophenyl)-5-(1-(4-fluorobenzyl)piperidin-4-yl)-1,2,4-oxadiazole] | > 100 µM | > 100 µM |  |  |
| Fc1ccc(CN2CCC(c3nc(-c4ccc(F)cc4)no3)CC2)cc1 [6h, 5-(1-(4-fluorobenzyl)piperidin-4-yl)-3-(4-fluorophenyl)-1,2,4-oxadiazole] | > 100 µM | > 100 µM |  |  |
| Clc1ccc(CN2CCC(c3nc(-c4ccccc4)no3)CC2)cc1 [6i, 5-(1-(4-chlorobenzyl)piperidin-4-yl)-3-phenyl-1,2,4-oxadiazole] | > 100 µM | > 100 µM |  |  |
| Cc1ccc(-c2noc(C3CCN(Cc4ccc(Cl)cc4)CC3)n2)cc1 [6j, 5-(1-(4-chlorobenzyl)piperidin-4-yl)-3-(p-tolyl)-1,2,4-oxadiazole] | > 100 µM | 50.3 ± 0.77 µM | > 1.98 |  |
| Clc1ccc(CN2CCC(c3nc(-c4ccc(Cl)cc4)no3)CC2)cc1 [6k, 5-(1-(4-chlorobenzyl)piperidin-4-yl)-3-(4-chlorophenyl)-1,2,4-oxadiazole] | > 100 µM | > 100 µM |  |  |
| Fc1ccc(-c2noc(C3CCN(Cc4ccc(Cl)cc4)CC3)n2)cc1 [6l, 5-(1-(4-chlorobenzyl)piperidin-4-yl)-3-(4-fluorophenyl)-1,2,4-oxadiazole] | > 100 µM | > 100 µM |  |  |
| Clc1ccccc1CN1CCC(c2nc(-c3ccccc3)no2)CC1 [6m, 5-(1-(2-chlorobenzyl)piperidin-4-yl)-3-phenyl-1,2,4-oxadiazole] | > 100 µM | > 100 µM |  |  |
| Cc1ccc(-c2noc(C3CCN(Cc4ccccc4Cl)CC3)n2)cc1 [6n, 5-(1-(2-chlorobenzyl)piperidin-4-yl)-3-(p-tolyl)-1,2,4-oxadiazole] | > 100 µM | 5.07 µM | greater than 19.72 |  |
| Clc1ccc(-c2noc(C3CCN(Cc4ccccc4Cl)CC3)n2)cc1 [6o, 5-(1-(2-chlorobenzyl)piperidin-4-yl)-3-(4-chlorophenyl)-1,2,4-oxadiazole] | > 100 µM | 81.2 ± 0.98 µM | > 1.23 |  |
| Fc1ccc(-c2noc(C3CCN(Cc4ccccc4Cl)CC3)n2)cc1 [6p, 5-(1-(2-chlorobenzyl)piperidin-4-yl)-3-(4-fluorophenyl)-1,2,4-oxadiazole] | > 100 µM | > 100 µM |  |  |
| Cc1ccc(CN2CCC(c3nc(-c4ccccc4)no3)CC2)cc1 [6q, 5-(1-(4-methylbenzyl)piperidin-4-yl)-3-phenyl-1,2,4-oxadiazole] | > 100 µM | > 100 µM |  |  |
| Cc1ccc(CN2CCC(c3nc(-c4ccc(C)cc4)no3)CC2)cc1 [6r, 5-(1-(4-methylbenzyl)piperidin-4-yl)-3-(p-tolyl)-1,2,4-oxadiazole] | > 100 µM | 62.8 ± 0.65 µM | > 1.59 |  |
| Cc1ccc(CN2CCC(c3nc(-c4ccc(Cl)cc4)no3)CC2)cc1 [6s, 3-(4-chlorophenyl)-5-(1-(4-methylbenzyl)piperidin-4-yl)-1,2,4-oxadiazole] | > 100 µM | > 100 µM |  |  |
| Cc1ccc(CN2CCC(c3nc(-c4ccc(F)cc4)no3)CC2)cc1 [6t, 3-(4-fluorophenyl)-5-(1-(4-methylbenzyl)piperidin-4-yl)-1,2,4-oxadiazole] | > 100 µM | > 100 µM |  |  |
| CCCCCCCNC(=O)Oc1cccc(-c2coc3c4c(ccc3c2=O)OC(C)(C)C=C4)c1F [compound 1] |  |  |  | IC50 [3]: 297 µM; IC50 [4, 5]: 0.222 µM |
| O=C(Nc1c(Cl)cccc1Cl)c1ccc(Br)cc1 [compound 2] |  |  |  | AChE IC50 [3]: inactive; IC50 ([4]; Figure 2, known inhibitor): 0.8 µM |
| CC(=O)N[C@@H](Cn1cc(-c2ccccc2)nn1)C(=O)NCC1CCN(Cc2ccccc2)CC1 [compound 3] |  |  |  | IC50 [3]: > 10 µM; IC50 [4, 5]: 0.00017 µM |
| COc1cc(C2C3=C(CCCC3=O)NC3=C2C(=O)CCC3)ccc1OCc1ccc(F)cc1 [compound 4] |  |  |  | IC50 [3]: 125 µM; IC50 [4, 5]: 0.098 µM |
